Consider 20 molecules from PubChem BioAssay AID192 (DTP/NCI, 2004).

Where “and” joins values, the source holds several entries; their conditions need not be identical. Identical values can stand only once. Toxic doses and inconclusive results are not listed.

For this assay, the system named is BDF1 mice, B16 melanoma ip, median survival T/C. The assay can be described thus: NCI In Vivo Anticancer Drug Screen. Data for tumor model B16 Melanoma (intraperitoneal) in B6D2F1 (BDF1) mice. Particulars: endpoint: median survival time, higher = longer survival. The essentials:
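Read-out: survival or tumor size, given as treated/control ratio. Controls received vehicle only; animals bore transplantable tumors.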

The mark [1] stands for this setting: dose: 3.13 mg/kg/injection, schedule: Q01DX009 (ip), vehicle: saline with Tween-80.
The mark [2] stands for this setting: dose: 6.25 mg/kg/injection, schedule: Q01DX009 (ip), vehicle: saline with Tween-80.
Setting [3] is: dose: 12.5 mg/kg/injection, schedule: Q01DX009 (ip), vehicle: saline with Tween-80.
[4] abbreviates: dose: 50.0 mg/kg/injection, schedule: Q01DX009 (ip), vehicle: Klucel (hydroxypropylcellulose) (HPC).
Where [5] appears, read: dose: 100.0 mg/kg/injection, schedule: Q01DX009 (ip), vehicle: Klucel (hydroxypropylcellulose) (HPC).
The mark [6] stands for this setting: dose: 200.0 mg/kg/injection, schedule: Q01DX009 (ip), vehicle: Klucel (hydroxypropylcellulose) (HPC).
Where [7] appears, read: dose: 12.5 mg/kg/injection, schedule: Q01DX009 (ip), vehicle: saline.
Where [8] appears, read: dose: 25.0 mg/kg/injection, schedule: Q01DX009 (ip), vehicle: saline.
Setting [9] is: dose: 50.0 mg/kg/injection, schedule: Q01DX009 (ip), vehicle: saline.
[10] abbreviates: dose: 12.5 mg/kg/injection, schedule: Q04DX003 (ip), vehicle: saline with Tween-80.
The mark [11] stands for this setting: dose: 25.0 mg/kg/injection, schedule: Q04DX003 (ip), vehicle: saline with Tween-80.
Setting [12] is: dose: 50.0 mg/kg/injection, schedule: Q04DX003 (ip), vehicle: saline with Tween-80.
Where [13] appears, read: dose: 50.0 mg/kg/injection, schedule: Q01DX009 (ip), vehicle: saline with Tween-80.
[14] abbreviates: dose: 25.0 mg/kg/injection, schedule: Q01DX009 (ip), vehicle: saline with Tween-80.
The mark [15] stands for this setting: dose: 100.0 mg/kg/injection, schedule: Q01DX009 (ip), vehicle: saline with Tween-80.

Consider `CC(=O)O[C@H]1C(=O)O[C@@H]2C[C@H]3C(C)=CC(=O)[C@@H](O)[C@]3(C)[C@H]3[C@@]4(O)OC[C@]32[C@@H]1[C@@H](C)[C@H]4O`, for which the T/C was 101 % of control (dose: 0.39 mg/kg/injection, schedule: Q01DX009 (ip), vehicle: saline with Tween-80); 105 % of control (dose: 0.78 mg/kg/injection, schedule: Q01DX009 (ip), vehicle: saline with Tween-80); 112 % of control (dose: 1.5 mg/kg/injection, schedule: Q01DX009 (ip), vehicle: Klucel (hydroxypropylcellulose) (HPC)); 112 % of control (dose: 1.5 mg/kg/injection, schedule: Q01DX009 (ip), vehicle: saline); 96 % of control (dose: 1.56 mg/kg/injection, schedule: Q01DX009 (ip), vehicle: saline with Tween-80); 107 % of control under setting [1]. Further, the T/C was 107 % of control under setting [2]; 164 % of control (dose: 12.0 mg/kg/injection, schedule: Q01DX009 (ip), vehicle: saline); 118 % of control under setting [3].
Take `O=C(O)c1ccccc1C(=O)Nc1cc(Cl)ccc1Cl`: the T/C is 100 % of control under setting [4] and 94 % of control under setting [5].
`CNC(=O)OCc1c(COC(=O)NC)c(-c2ccccc2)n(C)c1-c1ccccc1`: the T/C is 161 % of control (dose: 3.12 mg/kg/injection, schedule: Q01DX009 (ip), vehicle: distilled water + Tween-80); 159 % of control (dose: 6.25 mg/kg/injection, schedule: Q01DX009 (ip), vehicle: distilled water + Tween-80); 166 % of control (dose: 12.5 mg/kg/injection, schedule: Q01DX009 (ip), vehicle: distilled water + Tween-80); 206 % of control (dose: 25.0 mg/kg/injection, schedule: Q01DX009 (ip), vehicle: distilled water + Tween-80).
Consider `COc1cc(/C=N/NC(=O)N/N=C/c2cc(OC)c(OC)c(OC)c2)cc(OC)c1OC`, for which the T/C runs as follows: under setting [5], 93 % of control; under setting [6], 90 % of control.
Consider `O=c1[nH]c(=O)n([C@H]2CCCO2)cc1F`, for which the T/C is, setting by setting: (dose: 3.12 mg/kg/injection, schedule: Q01DX009 (ip), vehicle: saline) 86 % of control; (dose: 12.5 mg/kg/injection, schedule: Q01DX009 (ip), vehicle: Klucel (hydroxypropylcellulose) (HPC)) 98 % of control; under setting [7], 86 % of control; (dose: 25.0 mg/kg/injection, schedule: Q01DX009 (ip), vehicle: Klucel (hydroxypropylcellulose) (HPC)) 94 % of control; under setting [8], 100 % of control; under setting [4], 97 % of control. Further, the T/C runs as follows: under setting [9], 95 % of control; under setting [5], 102 % of control; (dose: 100.0 mg/kg/injection, schedule: Q01DX009 (ip), vehicle: saline) 102 % of control and 104 % of control.
For the molecule `C[C@@H]1CN1C1=CC(=O)C(N2C[C@H]2C)=CC1=O`, the T/C (dose: 0.25 mg/kg/injection, schedule: Q01DX009 (ip), vehicle: saline) was 104 % of control and the T/C (dose: 0.5 mg/kg/injection, schedule: Q01DX009 (ip), vehicle: saline) was 95 % of control.
`CCOc1ccccc1NC(=O)Nc1ccccc1OC`: the T/C under setting [5] is 86 % of control; the T/C under setting [6] was 98 % of control; the T/C (dose: 400.0 mg/kg/injection, schedule: Q01DX009 (ip), vehicle: Klucel (hydroxypropylcellulose) (HPC)) is 89 % of control.
As to `COc1ccc(NC2=CC(C)(C(=O)O)OC2=O)cc1` (centres undefined), the T/C is, setting by setting: under setting [10], 93 % of control; under setting [11], 102 % of control; under setting [12], 100 % of control.
With `C1#CCCCCCC#CCCCC1`, the T/C under setting [3] is 89 % of control; the T/C under setting [10] was 91 % of control; the T/C under setting [11] is 97 % of control; the T/C under setting [13] is 100 % of control; the T/C under setting [12] was 89 % of control and 94 % of control.
Regarding `CC(=O)N(NC(C)C)C(C)C`, the T/C runs as follows: (dose: 6.25 mg/kg/injection, schedule: Q01DX009 (ip), vehicle: saline) 111 % of control; under setting [7], 103 % of control; under setting [8], 99 % of control; under setting [9], 102 % of control.
Turning to `CCN(CC)CCCCNc1ccc(NCCCCN(CC)CC)c2c1C(=O)c1ccccc1C2=O`, the T/C by setting is: under setting [14], 105 % of control; under setting [13], 99 % of control.
On to `CCC12C=CCN3CCC4(c5cc(C(c6cccnc6)c6cc7ccccc7n6C)c(OC)cc5N(C)C4C(O)(C(=O)OC)C1OC(C)=O)C32` (centres undefined), for which the T/C runs as follows: (dose: 0.06 mg/kg/injection, schedule: Q01DX009 (ip), vehicle: water) 109 % of control; (dose: 0.13 mg/kg/injection, schedule: Q01DX009 (ip), vehicle: water) 103 % of control; (dose: 0.25 mg/kg/injection, schedule: Q01DX009 (ip), vehicle: water) 100 % of control; (dose: 0.5 mg/kg/injection, schedule: Q01DX009 (ip), vehicle: water) 113 % of control; (dose: 1.0 mg/kg/injection, schedule: Q01DX009 (ip), vehicle: water) 110 % of control; (dose: 2.0 mg/kg/injection, schedule: Q01DX009 (ip), vehicle: other) 104 % of control. For the same molecule, the T/C runs as follows: (dose: 2.0 mg/kg/injection, schedule: Q01DX009 (ip), vehicle: water) 107 % of control; (dose: 4.0 mg/kg/injection, schedule: Q01DX009 (ip), vehicle: other) 95 % of control; (dose: 8.0 mg/kg/injection, schedule: Q01DX009 (ip), vehicle: other) 101 % of control; (dose: 16.0 mg/kg/injection, schedule: Q01DX009 (ip), vehicle: other) 105 % of control; (dose: 32.0 mg/kg/injection, schedule: Q01DX009 (ip), vehicle: other) 106 % of control.
Take `C=C(Br)CNC(=O)CCC`: the T/C is, setting by setting: (dose: 2.5 mg/kg/injection, schedule: Q01DX009 (ip), vehicle: saline) 103 % of control; (dose: 5.0 mg/kg/injection, schedule: Q01DX009 (ip), vehicle: saline) 112 % of control; (dose: 10.0 mg/kg/injection, schedule: Q01DX009 (ip), vehicle: saline) 104 % of control.
Regarding `CN1CCN(CCCN2c3ccccc3Sc3ccc(Cl)cc32)CC1`, the T/C is, setting by setting: (dose: 0.19 mg/kg/injection, schedule: Q01DX009 (ip), vehicle: saline) 111 % of control; (dose: 0.39 mg/kg/injection, schedule: Q01DX009 (ip), vehicle: saline) 97 % of control; (dose: 0.78 mg/kg/injection, schedule: Q01DX009 (ip), vehicle: saline) 100 % of control.
With `O=CNC(Cc1cnc[nH]1)C(=O)O` (centres undefined), the T/C reads like this: under setting [13], 102 % of control; under setting [15], 100 % of control; (dose: 200.0 mg/kg/injection, schedule: Q01DX009 (ip), vehicle: saline with Tween-80) 103 % of control; (dose: 400.0 mg/kg/injection, schedule: Q01DX009 (ip), vehicle: saline with Tween-80) 100 % of control.
In the case of `CCN=NNc1ccc(C)cc1`, the T/C was 95 % of control under setting [1]; 91 % of control under setting [2]; 94 % of control (dose: 6.25 mg/kg/injection, schedule: Q04DX003 (ip), vehicle: saline with Tween-80); 97 % of control under setting [3]; 101 % of control under setting [10]; 91 % of control under setting [14]. The T/C under setting [11] was 103 % of control.
Turning to `CC(C)CC(Br)C(=O)NCC(=O)O` (centres undefined), the T/C is 95 % of control under setting [14] and 95 % of control under setting [13].
For `Cc1c(Cl)cccc1NC(=O)Nc1ccccc1Cl`, the T/C reads like this: (dose: 75.0 mg/kg/injection, schedule: Q01DX009 (ip), vehicle: Klucel (hydroxypropylcellulose) (HPC)) 106 % of control; (dose: 150.0 mg/kg/injection, schedule: Q01DX009 (ip), vehicle: Klucel (hydroxypropylcellulose) (HPC)) 95 % of control.
For the molecule `C/C=C/c1cc2c(c(=O)o1)C(=O)[C@@H](O)[C@H](C)O2`, the T/C by setting is: under setting [3], 95 % of control; under setting [14], 90 % of control; under setting [13], 95 % of control; under setting [15], 110 % of control.
Consider `COC(=O)C1Oc2ccc(Cl)cc2Cc2cc(Cl)ccc2O1`, for which the T/C is, setting by setting: (dose: 2.5 mg/kg/injection, schedule: Q01DX009 (ip), vehicle: Klucel (hydroxypropylcellulose) (HPC)) 91 % of control; (dose: 5.0 mg/kg/injection, schedule: Q01DX009 (ip), vehicle: Klucel (hydroxypropylcellulose) (HPC)) 99 % of control; (dose: 10.0 mg/kg/injection, schedule: Q01DX009 (ip), vehicle: Klucel (hydroxypropylcellulose) (HPC)) 93 % of control and 99 % of control.
